Test results reported in patent US9399637B2, “Substituted heteroaryl compounds and methods of use” (Calitor Sciences, LLC, priority 2014, dated 2016).

How the values were obtained:
[1] = Pharmacokinetics after intravenous and oral administration in rats; type: in vivo; details: iv dosing, 1 mg/kg; for AUC(0-t) / half-life / Vd: rat, plasma; for Vd: read-out: Vss
Method: The LC/MS/MS system used in the analysis consists of an Agilent 1200 Series vacuum degasser, binary pump, well-plate autosampler, thermostatted column compartment, the Agilent G6430 Triple Quadrupole Mass Spectrometer with an electrosprayionization (ESI) source. Quantitative analysis was carried out using MRM mode. The parameters for MRM transitions are in the Table A.
An Agilent XDB-C18, 2.1×30 mm, 3.5 μM column was used for the analysis. 5 μL of the samples were injected. Analysis condition: The mobile phase was 0.1% formic acid in water (A) and 0.1% formic acid in methanol (B). The flow rate was 0.4 mL/min. And the gradient of Mobile phase was in the Table B.
Alternatively, an Agilent 6330 series LC/MS/MS spectrometer equipped with G1312A binary pumps, a G1367A autosampler and a G1314C UV detector were used in the analysis. An ESI source was used on the LC/MS/MS spectrometer. The analysis was done in positive ion mode as appropriate and the MRM transition for each analyte was optimized using standard solution. A Capcell MP-C18 100×4.6 mm I.D., […] column (Phenomenex, Torrance, Calif., USA) was used during the analysis. The mobile phase was 5 mM ammonia acetate, 0.1% MeOH in water (A): 5 mM ammonia acetate, 0.1% MeOH in acetonitrile (B) (70:30, v/v). The flow rate was 0.6 mL/min. Column was maintained at ambient temperature. 20 μL of the samples were injected.
The compounds disclosed herein are assessed in pharmacokinetic studies in mice, rats, dogs or monkeys. The compounds are administered as a water solution, 2% HPMC+1% TWEEN®80 in water solution, 5% DMSO+5% solutol in saline, 4% MC suspension or capsule. For the intravenous administration, the animals are generally given at 1 or 2 mg/kg dose. For the oral (p.o.) dosing, mice and rats are generally given 5 or 10 mg/kg dose, and dogs and monkeys are generally given 10 mg/kg dose. The blood samples (0.3 mL) are drawn at 0.25, 0.5, 1.0, 2.0, 3.0, 4.0, 6.0, 8.0, 12 and 24 h time points or 0.083, 0.25, 0.5, 1.0, 2.0, 4.0, 6.0, 8.0 and 24 h time points and centrifuged at 3,000 or 4000 rpm for 2 to 10 min. The plasma solutions are collected, and stored at −20° C. or −70° C. until analyzed by LC/MS/MS as described above.

[2] = Compound stability in human liver microsomes; type: in vitro ADME; details: pH 7.4; for half-life at 5 μM: human liver microsomes 0.5 mg protein/mL, compound 5 μM, NADPH, 37° C., read-out: Human T1/2; for CLint scaled at 5 μM: human liver microsomes, in vivo CLint extrapolated
Method: Human or rat liver microsomes incubations were conducted in duplicate in polypropylene tubes. The typical incubation mixtures consisted of human or rat liver microsomes (0.5 mg protein/mL), compounds of interest (5 μM) and NADPH (1.0 mM) in a total volume of 200 μL potassium phosphate buffer (PBS, 100 mM, pH 7.4). Compounds were dissolved in DMSO and diluted with PBS such that the final concentration of DMSO was 0.05%. The enzymatic reactions were commenced with the addition of […] after a 3-min preincubation and incubated in a water bath open to the air at 37° C. Reactions were terminated at various time points (0, 5, 10, 15, 30, 60 min) by adding equal volume of ice-cold acetonitrile. The samples were stored at […] until LC/MS/MS assays.
The concentrations of compounds in the incubation mixtures of human or rat liver microsomes were determined by a LC/MS/MS method. The ranges of the linearity in the concentration range were determined for each tested compounds.
A parallel incubation was performed using denatured microsomes as the negative control, and reactions were terminated at various time points (0, 15, 60 min) after incubation at 37° C.
Dextromethorphan (70 μM) was selected as the positive control, and reactions were terminated at various time points (0, 5, 10, 15, 30, 60 min) after incubation at 37° C. Both positive and negative control samples were included in each assay to ensure the integrity of the microsomal incubation system.
The concentrations of compounds in human or rat liver microsome incubations were plotted as a percentage of the relevant zero time point control for each reaction. The in vivo CLint were extrapolated (ref.: Naritomi, Y.; Terashita, S.; Kimura, S.; Suzuki, A.; Kagayama, A.; and Sugiyama, Y.; Prediction of human hepatic clearance from in vivo animal experiments and in vitro metabolic studies with liver microsomes from animals and humans. Drug Metab. Dispos., 2001, 29: 1316-1324).

SMILES | Cl/F [1] | AUC(0-t) [1] | half-life [1] | Vd [1] | half-life at 5 μM [2] | CLint scaled at 5 μM [2]
Cc1c2ccc(Nc3ncc(Cl)c(NC4CC5CN(C(=O)CC#N)CC5C4)n3)cc2nn1C (stereo not drawn) [Ex. 4, 3-(5-((5-chloro-2-((2,3-dimethyl-2H-indazol-6-yl)amino)pyrimidin-4-yl)amino)hexahydrocyclopenta[c]pyrrol-2(1H)-yl)-3-oxopropanenitrile] | 36.2 mL/min/kg | 458 ng·h/mL | 81.6 min | 1.44 L/kg | 14.3 min | 122 mL/min/kg
CC(=O)N1CCC2(CCC(Nc3nc(Nc4ccc5c(C)n(C)nc5c4)ncc3Cl)CC2)CC1 [Ex. 7, 1-(9-((5-chloro-2-((2,3-dimethyl-2H-indazol-6-yl)amino)pyrimidin-4-yl)amino)-3-azaspiro[5.5]undecan-3-yl)ethanone] | 24.5 mL/min/kg | 688 ng·h/mL | 51 min | 1.68 L/kg | 42.9 min | 40.5 mL/min/kg
